Reference: patent publication US5015647A, “Method for treating viral infections” (Burroughs Wellcome Co., priority 1989, dated 1991)

Key:
[1] = target: T1, adenosine (purine) receptors (Cavia porcellus, UniProt P47745); experiment: guinea pig ileum twitch test, antagonism of purine receptors (agonist 2-chloroadenosine); settings: slope in parentheses after pA2
T1 construct: Ilea were removed from sacrificed guinea pigs and placed in organ baths; from tissue; host or cells: guinea pig ileum
T1 sequence (P47745 1-326): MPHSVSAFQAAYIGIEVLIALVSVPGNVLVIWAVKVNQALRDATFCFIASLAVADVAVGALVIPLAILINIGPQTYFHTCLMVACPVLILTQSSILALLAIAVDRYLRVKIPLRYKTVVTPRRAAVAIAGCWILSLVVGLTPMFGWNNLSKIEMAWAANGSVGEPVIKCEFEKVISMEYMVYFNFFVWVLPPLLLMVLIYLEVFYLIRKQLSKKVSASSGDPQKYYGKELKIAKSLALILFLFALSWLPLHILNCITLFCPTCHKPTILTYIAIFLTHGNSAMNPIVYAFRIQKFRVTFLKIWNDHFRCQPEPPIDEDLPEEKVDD
Method: Accordingly, a representative number of compounds of the present invention were tested for their ability to antagonise the purine receptors using the guinea pig ileum test system.
Ilea were removed from sacrificed guinea pigs and placed in organ baths containing oxygenated Krebs-Henseleit buffer. After equilibration, the ilea were stimulated to contract (twitch contraction) using an electrical field-stimulus of 0.1 Hz, 0.5 ms duration and maximal voltage. Under these conditions, the twitch contraction results from the release of acetylcholine.
Concentration response curves to the purine agonist, 2-chloroadenosine, were determined first in the absence and then in the presence of multiple concentrations of the compounds of the invention. One concentration of each compound was used per tissue. Quantification of purine receptor antagonism was accomplished using the Schild regression technique, i.e. plots of log (dose-ratio-1) vs log compound concentration, and the pA2 determined by regression of the data points to the x-intercept, where log (dose-ratio-1) is zero.

HIV = experiment: anti-HIV activity, in-vitro assay system; format: cell-based; design: key to ED50 (expressed as active (+) or very active (++)): +: active; ++: very active; settings: for EC50: Human immunodeficiency virus 1, 50% effective dose estimated, read-out: μM ED50; for EC50 / ED50 (expressed as active (+) or very active (++)): in vitro anti-HIV; for ED50 (expressed as active (+) or very active (++)): grade
Method: The anti-HIV activity of various compounds was tested using an in-vitro assay system as described in H Mitsuya et al; (Proc Natl. Acad.Sci. USA Vol 82 pp 7096-7100, October 1985)

Row | SMILES | slope (Schild regression) [1] | EC50 (HIV) | antiviral / anti-retroviral activity, in words (HIV; against AIDV / retroviruses, statement in words, listed as compound 14) | ED50 (expressed as active (+) or very active (++)) (HIV)
1 | O=C(O)/C=C/c1ccc(-c2nc3c(=O)n(Cc4ccccc4)c(=O)n(Cc4ccccc4)c3[nH]2)cc1 [Example 15, (E)-4-(1,3-dibenzyl-1,2,3,6-tetrahydro-2,6-dioxo-9H-purin-8yl) cinnamic acid] | 0.9 | 3 to 15 µM | especially potent activity against AIDV | ++
2 | Cn1c(=O)c2nc(-c3ccc(/C=C/C(=O)O)cc3)[nH]c2n(Cc2ccccc2)c1=O [Example 18, (E)-4-(3-benzyl-1,2,3,6-tetrahydro-1-methyl-2,6-dioxo-9H-purin-8yl) cinnamic acid] | 0.9 | – | – | –
3 | CC(C)Cn1c(=O)c2nc(-c3ccc(/C=C/C(=O)O)cc3)[nH]c2n(CC(C)C)c1=O [Example 19, (E)-4-(1,2,3,6-tetrahydro-1,3-diisobutyl-2,6-dioxo-9H-purin-8-yl)cinnamic acid] | 1.0 | – | – | –
4 | Cn1c(=O)c2[nH]cnc2n(C)c1=O [THEOPHYLLINE, 1,3-dimethylxanthine, reference compound] | 1.1 | – | – | –

More lines, main results first:

Row | slope (Schild regression) [1] | EC50 (HIV) | SMILES | antiviral / anti-retroviral activity, in words (HIV; against AIDV / retroviruses, statement in words, listed as compound 14) | ED50 (expressed as active (+) or very active (++)) (HIV)
5 | 1.0 | – | CCCn1c(=O)n(C)c(=O)c2nc(-c3ccc(/C=C/C(=O)O)cc3)[nH]c21 [Example 11, (E)-4-(1,2,3,6-tetrahydro-1-methyl-2,6-dioxo-3-propyl-9H-purin-8-yl)cinnamic acid] | – | –
6 | – | 30 µM | CCCn1c(=O)c2nc(-c3ccc(/C=C/C(=O)O)cc3)[nH]c2n(Cc2ccccc2)c1=O [Example 26, (E)-4-(3-Benzyl-1,2,3,6-tetrahydro-2,6dioxo-1-propyl-9H-purin-8-yl)cinnamicacid] | – | +
7 | – | 30 µM | CCCn1c(=O)n(Cc2ccccc2)c(=O)c2nc(-c3ccc(/C=C/C(=O)O)cc3)[nH]c21 [Example 25, (E)-4-(1-Benzyl-1,2,3,6-tetrahydro-2,6-dioxo-3-propyl-9H-purin-8-yl)cinnamic acid] | – | +
8 | 0.9 | – | CCCn1c(=O)c2nc(-c3ccc(/C=C/C(=O)O)cc3)[nH]c2n(CCC)c1=O [Example 6, (E)-4-(1,2,3,6-tetrahydro-2,6-dioxo-1,3-dipropyl-9H-purin-8-yl)cinnamic acid] | – | –
9 | 1.0 | 30 µM | CCCCn1c(=O)c2nc(-c3ccc(/C=C/C(=O)O)cc3)[nH]c2n(CCCC)c1=O [Example 14, (E)-4-(1,3-dibutyl-1,2,3,6-tetrahydro-2,6-dioxo-9H-purin-8-yl)cinnamic acid] | – | +
